How the values were obtained:
Type in all cases: in vivo, C57BL/6 mice
old mice (~20 months) [1] = assay: Y maze test for spatial memory; details: percentage of time in novel arm; single intrahippocampal injection; two weeks after surgery; versus vehicle
Method: (§1) Different experimental group of old mice (~20 months of age) were randomly injected on the hilus region of both brain hemispheres with vehicle (PBS or destillated water) or with one of four different molecules: Vitamin B12 (50 mg/ml; Vet one, ref: 510218), S-(5'-Adenosyl)-L-methionine chloride (0,25 mg/ml; Sigma, ref: A7007), folic acid (0,25 mg/ml; Sigma, ref: F7876-10G) or synthetic FRa binding peptide, peptide having amino acid sequence SEQ ID NO: 1, (2,5 mg/ml and 5 mg/ml, diluted in PBS; Abyntec). The pH of Vitamin B12, methionine or folic acid were adjusted to ~7 to avoid negative effects due to overly acidic medium. One week after intracerebral injections, mice were assessed with behavioural (open field trial) and memory tests (novel object recognition) to study potential functional effects of different metabolites on central nervous system. Two weeks after surgeries mice were finally perfused just after finalized Y maze test performing. […]
To assess spatial memory, an Y maze test based on published protocols with modifications (Kraeuter AK, et al. The Y-Maze for Assessment of Spatial Working and Reference Memory in Mice. Methods Mol Biol. 2019;1916:105-111. ) was performed. […] The number of entries into and the time spent in each arm, were registered from video recordings and analysed by AnyMaze software. […]

old mice (~20 months) [2] = assay: Novel object recognition test (NOR), memory index; details: single intrahippocampal injection, versus vehicle; for recognition memory at short term: 2 hours after training trial; for recognition memory at long-term: 5 days after training trial
Method: (§2) Different experimental group of old mice (~20 months of age) were randomly injected on the hilus region of both brain hemispheres with vehicle (PBS or destillated water) or with one of four different molecules: Vitamin B12 (50 mg/ml; Vet one, ref: 510218), S-(5'-Adenosyl)-L-methionine chloride (0,25 mg/ml; Sigma, ref: A7007), folic acid (0,25 mg/ml; Sigma, ref: F7876-10G) or synthetic FRa binding peptide, peptide having amino acid sequence SEQ ID NO: 1, (2,5 mg/ml and 5 mg/ml, diluted in PBS; Abyntec). The pH of Vitamin B12, methionine or folic acid were adjusted to ~7 to avoid negative effects due to overly acidic medium. One week after intracerebral injections, mice were assessed with behavioural (open field trial) and memory tests (novel object recognition) to study potential functional effects of different metabolites on central nervous system. Two weeks after surgeries mice were finally perfused just after finalized Y maze test performing.
(§3) After anesthesia with isofluorane, mice were secured in a stereotaxic frame (Kopf). Holes were drilled bilaterally in the skull at the injection sites (one per hemisphere) by microdrill with 0.5 mm drill bit. Stereotaxic coordinates used for intrahippocampal injections were as follows (from bregma): anterior-posterior 2.2, lateral 1.4, dorsoventral 2.0. A 33-gauge needle Hamilton syringe coupled to a syring pump controller mounted to the stereotaxic frame was used to inject 2µl of vehicle or metabolites at each site. Injections occurred at a rate of 0.25 µl/min, after which the needle was left in place for an additional 3 min, stopping another 3 minute in the halfway. After injections were completed, the skin was sutured and the animals were allowed to recover for 1 h on a heating pad before returning to the home cage. Mice remained in the home cage for an additional 1 week before the start of behavioral testing, being sacrificed 2 weeks after surgery.
Both open field (OF) and novel object recognition (NOR) tests were performed as described previously (Rodríguez-Matellán A, et al., In Vivo Reprogramming Ameliorates Aging Features in Dentate Gyrus Cells and Improves Memory in Mice. Stem Cell Reports. 2020 Nov 10;15(5):1056-1066. ). Locomotor activity as well as anxiety and depression-like behaviours in old mice were evaluated using OF. This test was used as habituation of NOR test. In brief, on the first day, the mice were placed individually for 10 min in a 45x45-cm plastic box with vertical opaque walls. Each session was recorded and different data like distance, speed, immobile time and time on center square of the box were analysed with Anymaze software. On the second day, mice were placed in the same box for 5 min, allowing them to explore two identical objects: A and B (two black rooks). Both objects were placed on the long axis of the cage, each 13 cm from the cage end. After each exposure, the objects and the cage were wiped with 70% ethanol to eliminate odors which potentially could condition successive mice behaviour. Two hours after the familiarization trial, each mouse was released into the box with the same object previously used (object A) and a new one (object C, a tower of coloured plastic pieces), instead of the object B (short-term memory test). The position of object C was the same as that of object B in the familiarization trial. The mice were given 5 min to explore the box. Five days later, the mice were released again into the box, with object A in the same position and another new object (object D, a falcon tube filled with wood chips) in the same position of the object C in the previous test. Again, animals were allowed 5 min to explore the box (Long-term memory test). Animals were considered to show recognition when their head was <2 cm from the object.
The memory index (Ml) was used to measure recognition memory performance. […]

old mice (~20 months) [3] = assay: Open field test (OF); details: single bilateral intrahippocampal (hilus) injection, 2µl per site; tested one week after surgery; versus vehicle
Method: as §2, §3
Both open field (OF) and novel object recognition (NOR) tests were performed as described previously (Rodríguez-Matellán A, et al., In Vivo Reprogramming Ameliorates Aging Features in Dentate Gyrus Cells and Improves Memory in Mice. Stem Cell Reports. 2020 Nov 10;15(5):1056-1066. ). Locomotor activity as well as anxiety and depression-like behaviours in old mice were evaluated using OF. This test was used as habituation of NOR test. In brief, on the first day, the mice were placed individually for 10 min in a 45x45-cm plastic box with vertical opaque walls. Each session was recorded and different data like distance, speed, immobile time and time on center square of the box were analysed with Anymaze software. On the second day, mice were placed in the same box for 5 min, allowing them to explore two identical objects: A and B (two black rooks). […]

perineuronal nets (PNN) = assay: Perineuronal nets (PNN) density labeled with WFA in dentate gyrus; details: single intrahippocampal injection, versus vehicle-injected aged mice
Method: as §1, with “system.” for “system. Two weeks after surgeries mice were finally perfused just after finalized Y maze test performing.”
(§4) Quantifications for density of DCX/Blbp/CIdU-immunoreactive positive cells were performed by counting in four different consecutive medial brain sections the number of cells localized in each whole DG (distinguishing between SGZ and GCL) and the adjacent hilus region. For perineuronal nets of extracellular matrix, positive units labelled with WFA were counted in the dentate gyrus (including granular cell layer and hilus) from three different consecutive medial brain sections. […]

Sox2 = Sox2 expression in dentate gyrus, immunoreactivity; details: different regions of dentate gyrus (hilus, GCL, SGZ); unique-dose injection in aged mice; versus vehicle
Method: as §2
(§5) After anesthesia with isofluorane, mice were secured in a stereotaxic frame (Kopf). Holes were drilled bilaterally in the skull at the injection sites (one per hemisphere) by microdrill with 0.5 mm drill bit. Stereotaxic coordinates used for intrahippocampal injections were as follows (from bregma): anterior-posterior 2.2, lateral 1.4, dorsoventral 2.0. […]

GluN2B = GluN2B immunoreactivity in molecular layer of dentate gyrus; details: single intrahippocampal injection, versus vehicle
Method: as §2
After anesthesia with isofluorane, mice were secured in a stereotaxic frame (Kopf). Holes were drilled bilaterally in the skull at the injection sites (one per hemisphere) by microdrill with 0.5 mm drill bit. […]
For GluN2B antibodies, the quantification was carried out with the imaged program by measuring the percentage of area occupied by the receptor immunoreactivity in the molecular layer of dentate gyrus. […]

[4] = system: neuronal precursors cells; assay: Adult neurogenesis markers in dentate gyrus, immunofluorescence cell density; details: subgranular zone; unique dose hippocampal injection; versus vehicle
Method: as §2, §3
Mice received three injections each 2 hours (200 ul/injection, in alternative sides of body) of 5-Chloro-2'-deoxy-Uridine (CldU, Sigma reference C6891; i.p. 42.75 mg/Kg bw) one week after cranial surgery and microinjections of solutions. In this way we were able to follow the effects of treatment in the proliferation of new cells at the subgranular zone, essential zone for neurogenesis process. […]
as §4

[5] = system: 5-hydroxymethylcytosine (5hmc); assay: DNA hydroxymethylation in hippocampal neuronal layers; details: versus vehicle
Method: as §2, §5

Dnmt1 = assay: Western blot of Dnmt1 in hippocampal extracts; details: western blot densitometry; versus vehicle
Method: as §2
(§6) After anesthesia with isofluorane, mice were secured in a stereotaxic frame (Kopf). […]
Mice were anesthetized with an intraperitoneal pentobarbital injection (Dolethal, 60 mg/kg body weight) and transcardially perfused with saline. […] Serial parasagittal sections ([…] thick) were cryoprotected in 30% sucrose solution in PB and stored in ethylene glycol/glycerol at […] until they were analyzed. […]

H4K20me3 = assay: Histone methylation immunofluorescence in dentate gyrus; details: 14 days since injection, versus vehicle
Method: as §2, §6
(§7) For 5mC, H3K9me3 and H4K20me3 antibodies, acquisition confocal settings (laser intensity, gain, pinhole) were kept constant for all images, which were captured in the same confocal session. […] The area above the threshold was then measured in Fiji and the mean fluorescence in the ROI was calculated and compared between vehicle and folate experimental groups.

H3K9me3 = assay: as above; details: 14 days since injection, versus vehicle
Method: as §2, §6, §7

5-methycytosine (5mC) = assay: DNA methylation immunofluorescence in hippocampal neurons; details: versus vehicle
Method: as §2
as §3, with “After injections were completed, the skin was sutured and the animals were allowed to recover for 1 h on a heating pad before returning to the home cage. Mice remained in the home cage for an additional 1 week before the start of behavioral testing, being sacrificed 2 weeks after surgery.” left out
as §7

| Compound | spatial memory (old mice (~20 months) [1]) | recognition memory at short term (old mice (~20 months) [2]) | recognition memory at long-term (old mice (~20 months) [2]) | anxiety-depression like behavior (central square time) (old mice (~20 months) [3]) | locomotor activity (distance travelled, speed and immobile time) (old mice (~20 months) [3]) | PNN density labeled with WFA (perineuronal nets (PNN)) | SOX2 expression (Sox2) | expression of GluN2B immunoreactivity (percentage of area occupied) (GluN2B) | doublecortin-ir cell density [4] | early neuronal precursor like blbp-ir cells density [4] | new born CIdU-ir cells density [4] | one-week-old neurons (double Dcx/CldU-ir cells) density [4] | level of 5hmc [5] | expression of Dnmt1 hippocampal levels (Dnmt1) | level of methylation at H4K20me3 (H4K20me3) | level of methylation at H3K9me3 (H3K9me3) | level of 5mC, mean intensity (5-methycytosine (5mC); granular neuronal layer of dentate gyrus (P=0.0132)) | level of 5mC, mean intensity (5-methycytosine (5mC); pyramidal layer of CA1 (P-value=0.06)) | level of 5mC, mean intensity (5-methycytosine (5mC); pyramidal layer of CA3 (P-value=0.05)) |
| --- | --- | --- | --- | --- | --- | --- | --- | --- | --- | --- | --- | --- | --- | --- | --- | --- | --- | --- | --- |
| Vitamin B12 | not revealed significant differences | not revealed significant differences | not revealed significant differences | not revealed any alteration | not revealed any alteration | – | – | – | – | – | – | – | – | – | – | – | – | – | – |
| CTVRTSAEC (source 1..9: organism (original language) = constructo sintetico) [FRa binding peptide] | – | Not significant differences | significant improvement | – | – | reducing the density | significant increase | increase | – | – | – | – | – | – | – | – | – | – | – |
| Nc1nc2ncc(CNc3ccc(C(=O)N[C@@H](CCC(=O)O)C(=O)O)cc3)nc2c(=O)[nH]1 [folate, folic acid] | improvement | not significant differences | improves | improvement | improvement | significant reduction | – | increase | neither found differences | subtle but non-significant tendency of increase | subtle but non-significant tendency of increase | subtle but non-significant tendency of increase | not significant changes | increased | does not modify | does not modify | significant changes | important tendency | important tendency |
